20 compounds from patent publication US9133122B2, “Amide compounds, compositions and uses thereof” (EVOTEC AG, priority 2008, dated 2015) can be followed below.

One test concerns the target T1, hP2X2/3H (Homo sapiens, UniProt P56373+Q9UBL9).
T1 construct: expressed in transfected cells
T1 sequence (P56373 1-397): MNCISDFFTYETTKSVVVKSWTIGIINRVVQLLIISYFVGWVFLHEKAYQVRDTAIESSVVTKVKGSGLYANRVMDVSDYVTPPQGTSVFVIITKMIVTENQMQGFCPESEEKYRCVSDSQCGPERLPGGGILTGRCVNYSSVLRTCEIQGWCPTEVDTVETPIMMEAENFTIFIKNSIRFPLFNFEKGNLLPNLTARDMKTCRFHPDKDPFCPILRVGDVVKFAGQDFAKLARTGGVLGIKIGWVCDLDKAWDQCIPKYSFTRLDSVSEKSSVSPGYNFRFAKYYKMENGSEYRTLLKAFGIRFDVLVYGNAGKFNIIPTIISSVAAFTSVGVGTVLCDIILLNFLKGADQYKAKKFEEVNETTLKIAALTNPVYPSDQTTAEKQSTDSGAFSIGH
T1 sequence (Q9UBL9 1-471): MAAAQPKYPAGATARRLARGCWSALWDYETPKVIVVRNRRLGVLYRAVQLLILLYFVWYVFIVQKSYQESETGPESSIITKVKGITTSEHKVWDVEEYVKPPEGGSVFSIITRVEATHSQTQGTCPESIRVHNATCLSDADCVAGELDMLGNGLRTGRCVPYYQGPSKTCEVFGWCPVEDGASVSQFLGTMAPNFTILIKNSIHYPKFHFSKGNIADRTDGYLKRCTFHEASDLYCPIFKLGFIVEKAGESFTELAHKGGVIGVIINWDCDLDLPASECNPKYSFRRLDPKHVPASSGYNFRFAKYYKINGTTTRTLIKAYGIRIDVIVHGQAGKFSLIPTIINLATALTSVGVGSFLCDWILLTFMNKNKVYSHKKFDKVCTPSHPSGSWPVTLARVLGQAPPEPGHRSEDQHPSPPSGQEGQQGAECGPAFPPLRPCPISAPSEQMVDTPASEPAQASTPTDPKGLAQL
Description: Calcium uptake assay (Ca influx), P2X antagonist assay, P2X2/3 heteromer. As to conditions: inhibition of agonist-induced calcium influx. In kind it is cell-based. An excerpt:
(§1) Human P2X3 (Accession no. NM_002559), P2X2 (Accession no. NM_170682) and Rat P2X3 (Accession no. NM_031075) and P2X2 (Accession no. NM_053656) are cloned into a mammalian expression vector (e.g., pcDNAS/TO or pcDNA3 Invitrogen). The human P2X2/3 chimera clone is created as described by Neelands et al, and then cloned into an expression vector as above. Receptors are expressed in cells (e.g., HEK293 or 1321N1 (obtained from the ECACC)) via transient transfection using standard lipid mediated transfection, or by creation of stable transfectants for each receptor. For expression of the P2X2/3 heteromeric receptor, the P2X3 expression vector is stably transfected into a cell line already stably expressing P2X2. P2X2/3 heteromer function is isolated using pharmacological methods. Cell lines are maintained in DMEM+5% Glutamax, the appropriate level of selective antibiotic, and 10% heat inactivated FBS.
(§2) Functional activity of compounds at the P2X receptor is determined by measuring their ability to inhibit agonist-induced calcium influx. Compounds are tested for antagonist activity against the P2X2/3 chimera, the P2X3 homomer, or the P2X2/3 heteromer. At the start of each screening day, the agonist EC50 is determined. Compound % inhibition or IC50s are subsequently determined using a predetermined agonist concentration (EC50-90 depending on cell line) as a stimulus. The agonists used are αβMeATP, ATP, or other ATP analogs. Compounds may be tested at concentrations ranging from 1 pM to 10 μM.
(§3) To test for antagonist activity, cells expressing the appropriate receptor are seeded onto 96 or 384 well plates 18-24 hours prior to assay. On the day of the assay, cells are loaded with calcium-sensitive fluorescent dye (e.g., Fluo-4 no wash reagent-Invitrogen cat#F36206, or the BD™ PBX Calcium Assay Kit-BD cat #640175) in Hank's Buffered Salt Solution (HBSS) with up to 10 mM supplemental CaCl2. Plates are incubated at 37° C. and then equilibrated at room temperature. Antagonism of agonist-induced calcium influx is measured using a fluorescent imaging plate reader (e.g. FLIPR^TETRA, Molecular Devices, Sunnyvale, Calif.). The assay comprises two stages: a pre-treatment phase followed by a treatment phase. Compounds may be tested as follows: For the pre-treatment phase, 50 μL of 3× concentration of test compound in HBSS is added to cells containing 100 μL of dye loading media to achieve a final concentration of 1× test compound. For the treatment phase, at a set interval after pre-treatment (1-30 minutes), 50 μL of 1× test compound plus 4× agonist solution is added, resulting in a final concentration of 1× compound and 1× agonist. Fluorescence is measured at 0.1-3 second intervals—with an excitation wavelength of 494 nm and an emission wavelength of 515 nm. Responses are measured as (peak fluorescence after agonist addition) minus (baseline fluorescence prior to treatment). Percent inhibition is calculated as follows:
(§4) [formula] IC50 values are determined by analyzing dose response data in a 4 parameter logistic fit using GraphPad Prizm.
(§5) The following compounds have been or can be prepared according to the synthetic methods described herein. A calcium uptake assay was performed as described above and the activity of each compound is expressed as follows: […]

The next test concerns the target T2, hP2X3 (Homo sapiens, UniProt P56373).
T2 construct: expressed in transfected cells
T2 sequence (P56373 1-397): T1 sequence (P56373 1-397)
Description: Calcium uptake assay (Ca influx), P2X antagonist assay, P2X3 homomer. In kind it is cell-based. As to conditions: inhibition of agonist-induced calcium influx.
Excerpt: as §1, §2, §3, §4, §5

The term IC50 denotes the midpoint of a concentration-inhibition curve. As for `Cc1ccc(-c2cc(C(=O)N[C@@H](C)CO)cc(-c3cnccc3C#N)c2)nc1` [Compound 84, 3-(4-Cyano-pyridin-3-yl)-N-((S)-2-hydroxy-1-methyl-ethyl)-5-(5-methyl-pyridin-2-yl)-benzamide], the IC50 came to 0.85 µM at hP2X2/3H and 0.0103 µM on hP2X3. For `Cc1ccc(-c2cc(C(=O)N[C@H](C)c3cnc(C)nc3)cc(N3CCCCC3=O)c2)nc1` [Compound 56, 3-(5-Methyl-pyridin-2-yl)-N-[(R)-1-(2-methyl-pyrimidin-5-yl)-ethyl]-5-(2-oxo-piperidin-1-yl)-benzamide], in that order: 0.418 µM and 0.0959 µM. As to `Cc1ccc(-c2cc(C(=O)N[C@@H](C)CO)cc(-c3cc(C(F)(F)F)ccc3C#N)c2)nc1` [Compound 79, 2′-Cyano-5-(5-methyl-pyridin-2-yl)-5′-trifluoromethyl-biphenyl-3-carboxylic acid ((S)-2-hydroxy-1-methyl-ethyl)-amide], the IC50 on hP2X2/3H amounted to 0.444 µM; at hP2X3, 0.0718 µM. For `Cc1ccc(-c2cc(C(=O)N[C@H](C)c3cnc(C)nc3)cc(N3CCOCC3=O)c2)nc1` [Compound 57, 3-(5-Methyl-pyridin-2-yl)-N-[(R)-1-(2-methyl-pyrimidin-5-yl)-ethyl]-5-(3-oxo-morpholin-4-yl)-benzamide] the same measures were 0.527 µM and 0.0892 µM.

`Cc1ccc(-c2cc(C(=O)NCc3ccc(C)nc3)cc(-c3ccccc3CO)c2)nc1` [Compound 13, 2′-Hydroxymethyl-5-(5-methyl-pyridin-2-yl)-biphenyl-3-carboxylic acid (6-methyl-pyridin-3-ylmethyl)-amide]: the values for the IC50 on hP2X2/3H and at hP2X3 were 0.0129 µM and 0.009 µM, respectively. As to `Cc1ccc(-c2cc(C(=O)N[C@@H](C)CO)cc(-c3cnccc3C#N)c2)c(C#N)c1` [Compound 86, 2′-Cyano-5-(4-cyano-pyridin-3-yl)-4′-methyl-biphenyl-3-carboxylic acid ((S)-2-hydroxy-1-methyl-ethyl)-amide], the results for the IC50 on hP2X2/3H and on hP2X3 were 0.0281 µM and 0.0022 µM, respectively. For `Cc1ccc(-c2cc(C(=O)NCc3ccc(C)nc3)cc(-c3cnccc3C#N)c2)nc1` [Compound 46, 3-(4-Cyano-pyridin-3-yl)-5-(5-methyl-pyridin-2-yl)-N-(6-methyl-pyridin-3-ylmethyl)-benzamide], in that order: 0.0088 µM and 0.0073 µM. For `Cc1ccc(-c2cc(C(=O)N[C@H](C)c3cnc(C)nc3)cc(-c3ccccc3C#N)c2)nc1` [Compound 31, 2′-Cyano-5-(5-methyl-pyridin-2-yl)-biphenyl-3-carboxylic acid [(R)-1-(2-methyl-pyrimidin-5-yl)-ethyl]-amide] the same measures were 0.0176 µM and 0.0142 µM. For the compound `Cc1ccc(-c2cc(C(=O)N[C@@H](C)CO)cc(-c3c(C)cccc3C#N)c2)nc1` [Compound 72, 6′-Cyano-2′-methyl-5-(5-methyl-pyridin-2-yl)-biphenyl-3-carboxylic acid ((S)-2-hydroxy-1-methyl-ethyl)-amide], the IC50 on hP2X3 came to 0.0594 µM. In the case of `Cc1ccc(-c2cc(C(=O)NCc3ccc(C)nc3)cc(-c3cccc(F)c3F)c2)nc1` [Compound 33, 2′,3′-Difluoro-5-(5-methyl-pyridin-2-yl)-biphenyl-3-carboxylic acid (6-methyl-pyridin-3-ylmethyl)-amide], the results for the IC50 on hP2X2/3H and at hP2X3 were 0.0987 µM and 0.122 µM, respectively. For `COc1ccccc1-c1cc(C(=O)NCc2ccc(C)nc2)cc(-c2ccc(C)cc2)c1` [Compound 4, 2″-Methoxy-4-methyl-[1,1′;3′,1″]terphenyl-5′-carboxylic acid (6-methyl-pyridin-3-ylmethyl)-amide] the same measures were 1.06 µM and 0.306 µM. With `Cc1ccc(-c2cc(C(=O)NCc3ccc(C)nc3)cc(N3CCCCC3=O)c2)cc1` [Compound 37, 4′-Methyl-N-((6-methylpyridin-3-yl)methyl)-5-(2-oxopiperidin-1-yl)biphenyl-3-carboxamide], the figures for the IC50 on hP2X2/3H and at hP2X3 were 0.122 µM and 0.0486 µM, respectively.

Consider `Cc1ccc(-c2cc(C(=O)NCc3ccc(C)nc3)cc(-c3ccncc3)c2)nc1` [Compound 19, 3-(5-Methyl-pyridin-2-yl)-N-(6-methyl-pyridin-3-ylmethyl)-5-pyridin-4-yl-benzamide], for which the IC50 at hP2X2/3H worked out at 0.238 µM; on hP2X3 it was 0.0614 µM.

In the case of `Cc1ccc(-c2cc(C(=O)NCc3ccc(C)nc3)cc(N3CCC[C@@H]3CO)c2)cc1` [Compound 62, 5-((R)-2-Hydroxymethyl-pyrrolidin-1-yl)-4′-methyl-biphenyl-3-carboxylic acid (6-methyl-pyridin-3-ylmethyl)-amide], the IC50 at hP2X2/3H is 0.0474 µM; on hP2X3, 0.0457 µM. For `Cc1ccc(-c2cc(C(=O)N[C@H](C)c3cnc(C)nc3)cc(-c3cccc(F)c3C#N)c2)nc1` [Compound 52, 2′-Cyano-3′-fluoro-5-(5-methyl-pyridin-2-yl)-biphenyl-3-carboxylic acid [(R)-1-(2-methyl-pyrimidin-5-yl)-ethyl]-amide] the same measures were 0.0375 µM and 0.0262 µM. On to `Cc1ccc(-c2cc(C(=O)N[C@@H](C)CO)cc(-c3ccccc3CO)c2)c(C#N)c1` [Compound 88, 2-Cyano-2″-hydroxymethyl-4-methyl-[1,1′;3′,1″]terphenyl-5′-carboxylic acid ((S)-2-hydroxy-1-methyl-ethyl)-amide], for which, at hP2X3, the IC50 is 0.0071 µM. The same measure, in the same setting: the same measure for `Cc1ccc(-c2cc(C(=O)N[C@@H](C)CO)cc(-c3ccccc3CO)c2)nc1` [Compound 82, 2′-Hydroxymethyl-5-(5-methyl-pyridin-2-yl)-biphenyl-3-carboxylic acid ((S)-2-hydroxy-1-methyl-ethyl)-amide]: 0.0332 µM; for `Cc1ccc(-c2cc(C(=O)NCc3ccc(C)nc3)cc(-c3ccc(C#N)cc3)c2)cc1` [Compound 24, 4″-Cyano-4-methyl-[1,1′;3′,1″]terphenyl-5′-carboxylic acid (6-methyl-pyridin-3-ylmethyl)-amide]: 0.626 µM; for `Cc1ccc(-c2cc(C(=O)N[C@@H](C)CO)cc(-c3cccc(F)c3F)c2)nc1` [Compound 70, 2′,3′-Difluoro-5-(5-methyl-pyridin-2-yl)-biphenyl-3-carboxylic acid ((S)-2-hydroxy-1-methyl-ethyl)-amide]: 0.0432 µM. On the same count and under the same terms, the same measure for `Cc1ccc(-c2cc(C(=O)N[C@@H](C)CO)cc(-c3ccc(C#N)cc3C)c2)nc1` [Compound 76, 4′-Cyano-2′-methyl-5-(5-methyl-pyridin-2-yl)-biphenyl-3-carboxylic acid ((S)-2-hydroxy-1-methyl-ethyl)-amide]: 0.0777 µM.
